SMILES strings stand for the structures. Activity calls are given as the source filed them. Where only a bound is given, the exact number is not on record here.

The target in experiment [1] is T1, Hexokinase HKDC1 (Homo sapiens, UniProt Q2TB90).
T1 sequence (Q2TB90 whole entry): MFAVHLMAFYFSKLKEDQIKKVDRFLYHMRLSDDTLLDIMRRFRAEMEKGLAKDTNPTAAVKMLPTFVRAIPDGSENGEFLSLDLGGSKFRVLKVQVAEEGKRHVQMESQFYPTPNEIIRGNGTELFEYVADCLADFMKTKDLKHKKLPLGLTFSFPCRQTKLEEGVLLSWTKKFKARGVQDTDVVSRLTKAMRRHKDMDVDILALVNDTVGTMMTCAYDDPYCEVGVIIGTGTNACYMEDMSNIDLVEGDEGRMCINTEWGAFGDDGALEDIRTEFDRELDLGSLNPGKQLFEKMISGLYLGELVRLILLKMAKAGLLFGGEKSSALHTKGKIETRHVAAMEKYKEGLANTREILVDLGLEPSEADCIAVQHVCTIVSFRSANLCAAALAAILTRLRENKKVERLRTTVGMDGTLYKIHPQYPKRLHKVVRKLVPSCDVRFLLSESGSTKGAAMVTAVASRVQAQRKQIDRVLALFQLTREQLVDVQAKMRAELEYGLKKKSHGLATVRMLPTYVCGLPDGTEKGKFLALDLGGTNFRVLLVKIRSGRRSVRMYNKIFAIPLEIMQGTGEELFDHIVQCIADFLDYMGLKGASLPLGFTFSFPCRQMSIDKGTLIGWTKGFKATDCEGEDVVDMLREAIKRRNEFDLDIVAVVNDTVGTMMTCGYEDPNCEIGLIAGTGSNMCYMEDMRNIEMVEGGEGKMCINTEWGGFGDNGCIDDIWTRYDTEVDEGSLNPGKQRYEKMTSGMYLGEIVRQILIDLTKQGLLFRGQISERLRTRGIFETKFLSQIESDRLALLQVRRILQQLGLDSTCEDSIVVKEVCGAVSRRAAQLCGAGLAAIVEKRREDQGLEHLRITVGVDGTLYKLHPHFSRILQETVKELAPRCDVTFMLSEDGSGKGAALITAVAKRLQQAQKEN
The experiment in a line: SAR analysis of small molecule inhibitors of hexokinase domain containing I (HKDC1). [Related pubchem assays (depositor defined):AID493160, AID493190]. The format is functional.

Experiment [2] deals with T2, Hexokinase-1 (Homo sapiens, UniProt P19367). Put plainly: SAR analysis of small molecule inhibitors of hexokinase domain containing I (HKDC1) in the hexokinase 1 selectivity assay. [Related pubchem assays (depositor defined):AID493160, AID493190]. The format is functional.
T2 sequence (P19367 whole entry, the tested form may be a part): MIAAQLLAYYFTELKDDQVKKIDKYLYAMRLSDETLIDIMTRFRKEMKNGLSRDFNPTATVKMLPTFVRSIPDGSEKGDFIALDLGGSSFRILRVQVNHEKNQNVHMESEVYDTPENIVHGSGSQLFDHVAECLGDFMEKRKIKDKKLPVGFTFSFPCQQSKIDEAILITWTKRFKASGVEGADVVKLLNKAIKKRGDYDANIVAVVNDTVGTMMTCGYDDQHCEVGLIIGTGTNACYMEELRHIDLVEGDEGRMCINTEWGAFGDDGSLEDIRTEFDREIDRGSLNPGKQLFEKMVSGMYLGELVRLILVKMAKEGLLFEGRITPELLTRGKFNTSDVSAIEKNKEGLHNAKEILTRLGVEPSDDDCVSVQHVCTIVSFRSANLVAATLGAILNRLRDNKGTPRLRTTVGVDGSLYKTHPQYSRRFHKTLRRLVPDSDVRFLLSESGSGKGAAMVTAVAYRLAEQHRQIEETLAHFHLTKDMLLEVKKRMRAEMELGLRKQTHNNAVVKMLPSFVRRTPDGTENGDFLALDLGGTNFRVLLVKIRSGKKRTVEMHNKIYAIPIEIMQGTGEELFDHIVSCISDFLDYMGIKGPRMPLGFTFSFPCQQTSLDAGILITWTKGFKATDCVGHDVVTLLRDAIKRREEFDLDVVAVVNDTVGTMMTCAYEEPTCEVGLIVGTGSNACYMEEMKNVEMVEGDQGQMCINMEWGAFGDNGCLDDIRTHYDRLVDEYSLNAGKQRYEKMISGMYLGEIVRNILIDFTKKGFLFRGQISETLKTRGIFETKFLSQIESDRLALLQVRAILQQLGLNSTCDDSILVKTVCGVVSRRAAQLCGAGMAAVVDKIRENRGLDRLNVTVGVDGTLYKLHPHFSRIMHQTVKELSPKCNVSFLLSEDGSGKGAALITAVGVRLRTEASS
The target in experiment [3] is T3, Phospholipase D1 (Homo sapiens, UniProt Q13393).
T3 sequence (Q13393 whole entry): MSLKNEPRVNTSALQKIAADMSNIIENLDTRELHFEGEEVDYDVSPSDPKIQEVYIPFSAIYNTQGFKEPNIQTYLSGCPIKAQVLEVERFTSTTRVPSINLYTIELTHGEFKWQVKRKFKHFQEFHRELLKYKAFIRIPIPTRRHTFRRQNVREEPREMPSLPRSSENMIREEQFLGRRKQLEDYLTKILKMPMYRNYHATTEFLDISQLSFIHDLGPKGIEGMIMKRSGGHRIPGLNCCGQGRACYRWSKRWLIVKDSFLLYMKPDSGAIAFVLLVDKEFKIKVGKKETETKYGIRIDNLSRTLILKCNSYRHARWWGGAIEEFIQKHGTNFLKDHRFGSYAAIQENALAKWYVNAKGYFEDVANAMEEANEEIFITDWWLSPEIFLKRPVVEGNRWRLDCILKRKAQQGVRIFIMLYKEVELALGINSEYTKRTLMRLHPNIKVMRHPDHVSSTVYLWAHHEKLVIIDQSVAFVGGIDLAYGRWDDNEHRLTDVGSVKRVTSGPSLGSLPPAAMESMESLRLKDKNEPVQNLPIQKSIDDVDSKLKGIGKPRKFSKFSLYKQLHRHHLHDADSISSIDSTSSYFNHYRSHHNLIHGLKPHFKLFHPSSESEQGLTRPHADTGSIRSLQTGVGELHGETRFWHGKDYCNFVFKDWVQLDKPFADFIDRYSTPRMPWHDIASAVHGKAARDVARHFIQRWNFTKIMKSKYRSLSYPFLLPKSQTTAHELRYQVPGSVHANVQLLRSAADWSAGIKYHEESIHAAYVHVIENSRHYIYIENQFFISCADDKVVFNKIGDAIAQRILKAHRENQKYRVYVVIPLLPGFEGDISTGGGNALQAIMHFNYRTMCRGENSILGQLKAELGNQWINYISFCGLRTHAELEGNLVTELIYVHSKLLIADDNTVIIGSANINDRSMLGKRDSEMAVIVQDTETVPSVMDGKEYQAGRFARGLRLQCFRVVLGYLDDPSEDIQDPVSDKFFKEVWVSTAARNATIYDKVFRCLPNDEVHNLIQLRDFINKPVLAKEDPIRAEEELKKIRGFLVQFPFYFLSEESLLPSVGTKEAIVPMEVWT
The experiment in a line: PLD1 purified enzyme concentration response. [Related pubchem assays (depositor defined):AID588854]. The format is functional.

Experiment [4] has as its target T4, Phospholipase D2 (Homo sapiens, UniProt O14939). Put plainly: PLD2 purified enzyme concentration response. [Related pubchem assays (depositor defined):AID588854]. The class given is functional.
Experiment [5] concerns the target T4, Phospholipase D2. Put plainly: PLD2 inhibitor potency in cells, dose response (AID 602147).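 Also: cellular assay in HEK293 cells overexpressing GFP-tagged PLD2.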 The format is functional.
Experiment [6] has as its target T3, Phospholipase D1. Put plainly: PLD1 inhibitor potency in cells, dose response (AID 602151).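 Also: cellular PLD1 assay in Calu-1 cells stimulated with PMA.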 The format is functional.
The target in experiment [7] is Voltage-gated inwardly rectifying potassium channel KCNH2 (Homo sapiens, UniProt Q12809). The conditions noted are these: Potency.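 Also: confirmatory quantitative high-throughput screen measuring inhibition of hERG channel activity.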
Chain of Voltage-gated inwardly rectifying potassium channel KCNH2 (Q12809 whole entry): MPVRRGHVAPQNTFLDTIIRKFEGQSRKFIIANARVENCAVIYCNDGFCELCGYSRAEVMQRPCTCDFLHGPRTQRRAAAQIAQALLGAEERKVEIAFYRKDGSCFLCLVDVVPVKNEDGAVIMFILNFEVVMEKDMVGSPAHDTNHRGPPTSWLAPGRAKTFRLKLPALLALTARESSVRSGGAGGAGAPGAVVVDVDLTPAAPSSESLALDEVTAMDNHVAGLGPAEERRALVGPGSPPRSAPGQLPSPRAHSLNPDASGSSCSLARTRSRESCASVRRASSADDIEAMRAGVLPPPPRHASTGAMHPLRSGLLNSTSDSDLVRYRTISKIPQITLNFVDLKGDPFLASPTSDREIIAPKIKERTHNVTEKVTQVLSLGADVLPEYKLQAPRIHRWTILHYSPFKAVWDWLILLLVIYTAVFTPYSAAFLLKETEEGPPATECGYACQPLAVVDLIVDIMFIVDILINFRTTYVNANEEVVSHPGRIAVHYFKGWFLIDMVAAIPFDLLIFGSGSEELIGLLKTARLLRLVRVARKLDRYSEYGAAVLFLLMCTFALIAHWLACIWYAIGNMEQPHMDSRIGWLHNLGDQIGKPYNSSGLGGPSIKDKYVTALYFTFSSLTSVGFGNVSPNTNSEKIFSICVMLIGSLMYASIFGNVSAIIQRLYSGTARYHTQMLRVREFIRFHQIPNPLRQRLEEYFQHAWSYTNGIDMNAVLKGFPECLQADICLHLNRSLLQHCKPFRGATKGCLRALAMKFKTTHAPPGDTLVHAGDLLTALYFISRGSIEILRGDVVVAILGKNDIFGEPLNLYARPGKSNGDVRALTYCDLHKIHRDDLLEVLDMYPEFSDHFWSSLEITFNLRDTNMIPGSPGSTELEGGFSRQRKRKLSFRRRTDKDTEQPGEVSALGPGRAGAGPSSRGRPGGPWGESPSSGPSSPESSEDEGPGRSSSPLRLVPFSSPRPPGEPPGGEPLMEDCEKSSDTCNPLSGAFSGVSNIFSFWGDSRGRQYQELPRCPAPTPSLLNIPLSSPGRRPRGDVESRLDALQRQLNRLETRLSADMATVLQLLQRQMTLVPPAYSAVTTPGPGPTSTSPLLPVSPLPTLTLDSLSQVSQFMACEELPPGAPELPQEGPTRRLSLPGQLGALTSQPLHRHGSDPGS
Experiment [8] addresses 5-hydroxytryptamine receptor 2A (Mus musculus, UniProt P35363). The format is functional, cell-based.
A further experiment addresses Mu-type opioid receptor (Homo sapiens, UniProt P35372). The class given is functional, cell-based.
The nature of experiment [9]: control 3'UTR Renilla luciferase suppression, dose response, counter-screen for Shn3 inhibitor project, cell-based, Clone20-Shn3RL, cherry-picked (AID 624133). The format is functional.
Experiment [10] can be described thus: C. albicans growth with fluconazole, confirmation, fluorescence, retest (AID 2467). The class given is functional, cell-based.
A short description of experiment [11]: inhibitors of SNCA 5'UTR-driven translation, confirmation, luminescence, H4 neuroglioblastoma cells, dose confirmation (AID 2454).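 Also: H4 neuroglioblastoma cells carrying an alpha-synuclein 5'UTR luciferase reporter; potency for inhibition of the luciferase signal.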 The format is functional, cell-based.
A short description of experiment [12]: inhibitors of SNCA 5'UTR-driven reporter translation, confirmation, H4 neuroglioma cells, luminescence (AID 1988). The format is functional, cell-based.
The nature of experiment [13]: Fluorescence-based cell-based high throughput dose response assay for inhibitors of the interaction of nucleotide-binding oligomerization domain containing 2 (NOD2) and the receptor-interacting serine-threonine kinase 2 (RIPK2). The class given is functional. The settings on record: Homo sapiens.
The nature of experiment [14]: Luminescence Cell-Based Dose Response HTS to Identify Inhibitors of 5'UTR Stem-Loop Driven Prion Protein mRNA Translation in H4 Neuroglioblastoma Cells. [Related pubchem assays: 1827 (Project Summary), 1813 (Primary HTS)]. The format is functional.
Experiment [15] can be described thus: cytotoxicity in HEK-293T NF-kB-Luc cells, dose response, cytotoxicity control for B/T-cell NF-kB inhibitor project, cell-based, uHTS hits (AID 489019).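 Also: IC50 reflects cytotoxicity as loss of cell viability.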 The format is functional.
For experiment [16], the target named is T5, Heat shock factor protein 1 (Mus musculus, UniProt P38532).
T5 sequence (P38532 whole entry): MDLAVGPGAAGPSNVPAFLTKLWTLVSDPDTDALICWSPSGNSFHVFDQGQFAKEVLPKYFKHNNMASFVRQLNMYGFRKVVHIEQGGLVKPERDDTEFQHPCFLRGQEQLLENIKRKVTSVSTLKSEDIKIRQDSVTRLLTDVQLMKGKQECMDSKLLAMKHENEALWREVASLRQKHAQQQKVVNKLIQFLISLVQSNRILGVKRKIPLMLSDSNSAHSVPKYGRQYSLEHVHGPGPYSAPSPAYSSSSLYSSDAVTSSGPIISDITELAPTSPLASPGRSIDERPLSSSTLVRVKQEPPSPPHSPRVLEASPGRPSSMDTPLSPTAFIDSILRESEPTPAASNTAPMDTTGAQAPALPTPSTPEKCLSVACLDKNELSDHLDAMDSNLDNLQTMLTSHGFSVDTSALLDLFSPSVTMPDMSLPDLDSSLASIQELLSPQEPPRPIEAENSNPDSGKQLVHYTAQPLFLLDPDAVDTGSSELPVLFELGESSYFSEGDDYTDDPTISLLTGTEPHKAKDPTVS
The experiment in a line: inhibition of MG132-induced HSE-luciferase signal, confirmation, cell-based, NIH3T3, luminescence, dose retest (AID 2382).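 Also: NIH3T3 fibroblasts with HSF1-driven luciferase reporter stressed by proteasome inhibitor MG132; luminescence from HSF1-driven luciferase expression after 8 hours of MG132 stress.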 The class given is functional.

Experiment [17] can be described thus: Shn3 3'UTR reporter inhibitors, dose response, cell-based, Clone20 osteoblasts, firefly luciferase, cherry-picked (AID 624132).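 Also: firefly luciferase luminescence from reporter carrying the Shn3 3'UTR in osteoblasts.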 The class given is functional.
Experiment [18] in a line: inhibitors of firefly luciferase expression or activity, dose response, H4 neuroglioma cells, luminescence (AID 1990). The class given is functional, cell-based.
The target in another experiment is Paired box protein Pax-8 (Homo sapiens, UniProt Q06710). Put plainly: inhibitors of PAX8-driven TPO luciferase reporter, dose response, RMG-I cells, cherry-pick (AID 687027).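 Also: luciferase reporter driven by Pax8 target thyroperoxidase promoter measured by SteadyGlo luminescence.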 The format is functional, cell-based.
Chain of Paired box protein Pax-8 (Q06710 whole entry): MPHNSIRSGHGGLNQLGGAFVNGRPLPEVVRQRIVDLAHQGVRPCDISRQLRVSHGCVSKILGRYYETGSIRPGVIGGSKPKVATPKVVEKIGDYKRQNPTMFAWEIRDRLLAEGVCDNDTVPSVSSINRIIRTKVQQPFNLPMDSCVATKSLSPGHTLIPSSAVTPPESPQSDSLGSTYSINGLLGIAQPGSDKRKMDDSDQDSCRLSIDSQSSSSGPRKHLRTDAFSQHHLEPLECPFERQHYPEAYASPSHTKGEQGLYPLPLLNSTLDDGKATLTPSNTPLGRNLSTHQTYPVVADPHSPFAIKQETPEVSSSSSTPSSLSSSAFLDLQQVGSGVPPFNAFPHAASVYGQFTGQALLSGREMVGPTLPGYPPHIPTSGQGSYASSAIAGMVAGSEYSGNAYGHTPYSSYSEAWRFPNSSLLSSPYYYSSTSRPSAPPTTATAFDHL
The nature of experiment [19]: NIH-3T3 fibroblast cytotoxicity, dose response, cytotoxicity control, cell-based, fluorescence, Alamar Blue, secondary assay (AID 2327).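 Also: NIH-3T3 mouse fibroblasts cultured with fluconazole at 8 µg/mL.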 The format is functional.
Experiment [20] in a line: HepG2 cell cytotoxicity, dose response, cytotoxicity control for Shn3 inhibitor project, CellTiter-Glo, cherry-picked (AID 624134). The format is functional, cell-based.
Another experiment concerns BJ. The experiment in a line: cytotoxicity toward Ras-transformed BJeLR fibroblasts, dose response, cell-based, alamar blue fluorescence, cherrypicked samples (AID 2631).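 Also: confirmatory dose-response assay in RAS-dependent BJ fibroblasts engineered with TERT, LT and ST, with cytotoxicity read by fluorescence.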 The format is functional. The conditions noted are these: Homo sapiens.
The nature of experiment [21]: luciferase reporter signal reduction – luminescence, H4-C neuroglioblastoma cells, dose response (AID 2458).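 Also: H4 neuroglioblastoma cells stably carrying a luciferase reporter gene fusion.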 The class given is functional, cell-based.
In a further experiment the test system is Jurkat. The experiment in a line: antigen receptor-induced NF-kB inhibitors, dose response, Jurkat, luciferase reporter, luminescence, B- and T-cell (AID 489004).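 Also: NF-kB luciferase reporter Jurkat cells stimulated with PMA plus ionomycin.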 The conditions noted are these: Homo sapiens. The format is functional, cell-based.
Another experiment can be described thus: cells. The format is functional, cell-based.
Another experiment has as its target DNA topoisomerase (Yersinia pestis, UniProt A0A2S9PM60). The experiment in a line: Y. pestis Topo-I inhibitors, cleavage product readout, dose response, biochemical, cherry-pick (AID 588525).
The target of experiment [22] is T2, Hexokinase-1. The experiment in a line: HK1 enzyme inhibition by HKDC1 hits, SAR follow-up, selectivity assay for HKDC1 inhibitor project, biochemical, set 2, resazurin fluorescence coupled readout (AID 588356). The format is functional.
The target in experiment [23] is T1, Hexokinase HKDC1. The experiment in a line: HKDC1 hexokinase inhibitors, SAR follow-up, biochemical, set 2 (AID 588355). The format is functional.

T4 sequence (O14939 whole entry): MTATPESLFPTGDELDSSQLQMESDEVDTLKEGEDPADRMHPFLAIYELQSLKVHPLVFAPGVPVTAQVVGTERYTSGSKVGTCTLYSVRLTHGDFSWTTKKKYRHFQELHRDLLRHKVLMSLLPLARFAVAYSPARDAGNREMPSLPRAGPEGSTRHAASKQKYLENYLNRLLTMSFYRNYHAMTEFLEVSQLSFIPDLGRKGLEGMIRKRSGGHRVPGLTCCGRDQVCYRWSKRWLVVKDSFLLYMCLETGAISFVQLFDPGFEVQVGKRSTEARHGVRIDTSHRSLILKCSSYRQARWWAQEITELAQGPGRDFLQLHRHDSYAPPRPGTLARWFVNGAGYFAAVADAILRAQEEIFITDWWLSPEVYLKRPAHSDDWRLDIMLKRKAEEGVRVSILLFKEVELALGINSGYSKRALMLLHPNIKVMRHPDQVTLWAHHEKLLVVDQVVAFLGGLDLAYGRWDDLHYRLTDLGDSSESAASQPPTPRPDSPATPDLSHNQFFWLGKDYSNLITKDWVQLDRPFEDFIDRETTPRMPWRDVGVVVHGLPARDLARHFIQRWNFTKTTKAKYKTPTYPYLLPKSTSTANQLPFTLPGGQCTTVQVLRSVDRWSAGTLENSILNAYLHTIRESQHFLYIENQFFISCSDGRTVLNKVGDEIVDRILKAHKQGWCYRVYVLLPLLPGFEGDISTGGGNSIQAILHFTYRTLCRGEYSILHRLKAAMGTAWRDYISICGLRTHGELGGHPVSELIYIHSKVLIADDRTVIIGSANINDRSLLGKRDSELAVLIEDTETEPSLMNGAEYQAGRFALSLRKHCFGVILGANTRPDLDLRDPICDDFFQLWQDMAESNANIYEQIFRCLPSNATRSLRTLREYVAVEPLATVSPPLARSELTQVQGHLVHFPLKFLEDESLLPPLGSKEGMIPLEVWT
Chain of 5-hydroxytryptamine receptor 2A (P35363 whole entry): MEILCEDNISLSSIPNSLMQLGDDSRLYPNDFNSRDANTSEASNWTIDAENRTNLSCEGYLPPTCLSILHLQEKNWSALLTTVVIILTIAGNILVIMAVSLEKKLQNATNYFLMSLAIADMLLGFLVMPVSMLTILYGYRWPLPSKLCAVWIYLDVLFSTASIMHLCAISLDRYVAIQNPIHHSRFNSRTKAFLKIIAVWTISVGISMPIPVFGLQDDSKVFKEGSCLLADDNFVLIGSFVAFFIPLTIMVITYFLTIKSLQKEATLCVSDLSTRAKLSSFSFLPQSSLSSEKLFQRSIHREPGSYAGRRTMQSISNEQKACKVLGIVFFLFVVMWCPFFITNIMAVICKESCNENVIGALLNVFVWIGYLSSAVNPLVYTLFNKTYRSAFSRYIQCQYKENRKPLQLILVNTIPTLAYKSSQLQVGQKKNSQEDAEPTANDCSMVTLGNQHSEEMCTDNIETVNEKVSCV
Chain of DNA topoisomerase (A0A2S9PM60 whole entry): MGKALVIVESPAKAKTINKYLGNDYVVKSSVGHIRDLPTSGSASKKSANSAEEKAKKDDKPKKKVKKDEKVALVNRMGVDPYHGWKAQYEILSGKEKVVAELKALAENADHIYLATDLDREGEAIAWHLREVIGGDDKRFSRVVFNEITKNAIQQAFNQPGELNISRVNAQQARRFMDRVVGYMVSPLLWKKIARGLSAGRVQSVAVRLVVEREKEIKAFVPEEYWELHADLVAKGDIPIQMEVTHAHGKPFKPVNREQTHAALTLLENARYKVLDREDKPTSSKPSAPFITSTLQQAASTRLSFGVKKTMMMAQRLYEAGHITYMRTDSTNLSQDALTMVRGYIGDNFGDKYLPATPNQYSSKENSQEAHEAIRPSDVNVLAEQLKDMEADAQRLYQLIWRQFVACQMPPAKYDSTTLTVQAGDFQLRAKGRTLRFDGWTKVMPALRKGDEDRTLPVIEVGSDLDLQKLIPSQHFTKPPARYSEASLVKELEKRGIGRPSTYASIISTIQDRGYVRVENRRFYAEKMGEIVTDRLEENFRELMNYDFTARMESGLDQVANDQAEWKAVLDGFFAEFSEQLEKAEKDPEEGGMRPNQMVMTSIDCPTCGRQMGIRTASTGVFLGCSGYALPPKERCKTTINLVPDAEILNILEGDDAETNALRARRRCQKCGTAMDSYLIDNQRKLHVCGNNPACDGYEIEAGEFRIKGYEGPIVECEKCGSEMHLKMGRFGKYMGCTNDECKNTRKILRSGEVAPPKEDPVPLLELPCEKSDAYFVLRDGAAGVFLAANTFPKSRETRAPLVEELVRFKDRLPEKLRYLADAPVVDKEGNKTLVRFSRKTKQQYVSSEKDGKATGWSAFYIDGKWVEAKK

Take `O=C(Nc1cccc(C(F)(F)F)c1)c1cccc(NC(=O)c2cnccn2)c1`: the IC50 on Hexokinase HKDC1 [1] and on Hexokinase-1 [2] was > 80000 nM (inactive) in each case.

Regarding `C[C@H](CN1CCC(n2c(=O)[nH]c3cc(Cl)ccc32)CC1)NC(=O)c1cc2ccccc2[nH]1`, the IC50 on Phospholipase D1 [3] is 9 nM (active); at Phospholipase D2 [4], 120 nM (active); at Phospholipase D2 [5], 260 nM (active); at Phospholipase D1 [6] it was 2 nM (active).

As to `C=CCN1CCc2cc(O)c(O)cc2C(c2ccccc2)C1` (centres undefined), the AC50 in experiment [7] is 15800 nM (inconclusive). Also, the EC50 in experiment [8] was 2320 nM (active); on Mu-type opioid receptor, 92500 nM (inactive).

For the molecule `COc1ccc(C[C@H]2NC[C@H](O)[C@H]2OC(C)=O)cc1` [ANISOMYCIN], the AC50 in [9] was 3440 nM (active); in experiment [17], 882 nM (active); at Paired box protein Pax-8, < 260 nM (active); in experiment [20], > 70000 nM (inactive). The EC50 in experiment [10] is 1030 nM (active); in experiment [11], 104 nM (active); in experiment [12] it was < 100 nM (active); in [14], > 120000 nM (not active); in experiment [16], 243 nM (active); in [18] it was < 100 nM (active). For the same molecule, the EC50 in [19] is < 120 nM (active); in the experiment on BJ, 30.8 nM (active); in experiment [21] it was 91 nM (active); in the experiment “cells”, 121 nM (active). Also, the IC50 in experiment [13] is 49800 nM (inactive); in [15] it was > 80000 nM (inactive); in the experiment on Jurkat, < 160 nM (active).

Take `Cc1cc(OCCn2nc(C(=O)O)c3ccccc3c2=O)ccc1C(C)C`: the AC50 at DNA topoisomerase was 3680 nM (active).

Consider `CC(=O)NC1C(=O)N(Cc2ccccc2)c2ccc(Cl)cc21` (centres undefined), for which the IC50 on Hexokinase-1 [22] and at Hexokinase HKDC1 [23] was > 80000 nM (inactive) each time.

Source of the values: ChEMBL document CHEMBL1201862, “PubChem BioAssay data set” (2004).
